Test results published in PMC12090182, “Repurposing of the RIPK1-Selective Benzo[1,4]oxazepin-4-one Scaffold for the Development of a Type III LIMK1/2 Inhibitor” (ACS Chemical Biology, 2025).

What was measured:
Assay in all cases: scanMAX KINOMEscan (Eurofins)
Format in all cases: binding
BLK = BLK (Homo sapiens, UniProt P51451); conditions: 1000 nM, read-out: Percent Control
Excerpt: (§1) Supplement cb5c00097_si_002.xlsx, sheet "Table S6 (Eurofins Selectivity)" | column: Percent Control

BMX = BMX (Homo sapiens, UniProt P51813); conditions: read-out: Percent Control
Chain of BMX (P51813 whole entry): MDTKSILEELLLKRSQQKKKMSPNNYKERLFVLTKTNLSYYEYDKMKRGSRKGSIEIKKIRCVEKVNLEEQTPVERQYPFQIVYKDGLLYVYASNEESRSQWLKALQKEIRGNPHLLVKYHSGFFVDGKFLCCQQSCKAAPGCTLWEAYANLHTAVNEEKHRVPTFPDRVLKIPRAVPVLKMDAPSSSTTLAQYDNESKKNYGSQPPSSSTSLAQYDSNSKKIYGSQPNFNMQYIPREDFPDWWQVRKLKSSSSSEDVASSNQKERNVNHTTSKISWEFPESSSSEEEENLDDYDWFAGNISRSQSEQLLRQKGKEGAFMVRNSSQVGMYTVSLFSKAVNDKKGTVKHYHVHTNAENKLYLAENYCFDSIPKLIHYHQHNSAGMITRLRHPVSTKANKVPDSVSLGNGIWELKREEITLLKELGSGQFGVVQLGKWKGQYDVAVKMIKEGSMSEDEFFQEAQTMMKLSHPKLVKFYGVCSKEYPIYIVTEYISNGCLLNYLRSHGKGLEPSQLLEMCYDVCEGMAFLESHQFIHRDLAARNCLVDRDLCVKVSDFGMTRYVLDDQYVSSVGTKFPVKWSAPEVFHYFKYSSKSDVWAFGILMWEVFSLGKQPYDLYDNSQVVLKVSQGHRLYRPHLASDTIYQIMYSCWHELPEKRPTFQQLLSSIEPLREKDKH
Excerpt: as §1

CAMK1G = CAMK1G (Homo sapiens, UniProt Q96NX5); conditions: 1000 nM, read-out: Percent Control
Excerpt: as §1

CIT = CIT (Homo sapiens, UniProt O14578); conditions: 1000 nM, read-out: Percent Control
Excerpt: as §1

DMPK = DMPK (Homo sapiens, UniProt Q09013); conditions: read-out: Percent Control
Chain of DMPK (Q09013 whole entry): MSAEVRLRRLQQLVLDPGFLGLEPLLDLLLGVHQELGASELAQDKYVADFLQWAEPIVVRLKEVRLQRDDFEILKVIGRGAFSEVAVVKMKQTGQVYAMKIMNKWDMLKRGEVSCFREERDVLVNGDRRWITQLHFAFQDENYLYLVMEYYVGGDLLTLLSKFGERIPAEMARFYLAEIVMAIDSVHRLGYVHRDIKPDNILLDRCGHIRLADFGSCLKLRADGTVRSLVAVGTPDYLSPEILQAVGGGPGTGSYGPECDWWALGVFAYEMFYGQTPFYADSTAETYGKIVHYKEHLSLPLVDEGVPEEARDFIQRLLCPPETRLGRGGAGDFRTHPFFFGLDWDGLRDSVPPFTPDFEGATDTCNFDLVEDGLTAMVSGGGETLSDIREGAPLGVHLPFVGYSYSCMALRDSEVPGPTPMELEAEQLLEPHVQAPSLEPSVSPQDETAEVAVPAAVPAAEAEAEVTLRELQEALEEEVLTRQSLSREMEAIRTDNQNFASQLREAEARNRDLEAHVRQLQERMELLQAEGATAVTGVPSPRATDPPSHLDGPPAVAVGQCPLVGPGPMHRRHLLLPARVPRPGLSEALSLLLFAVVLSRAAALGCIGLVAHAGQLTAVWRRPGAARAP
Excerpt: as §1

EGFR = EGFR (Homo sapiens, UniProt P00533); conditions: read-out: Percent Control
Chain of EGFR (P00533 25-1210): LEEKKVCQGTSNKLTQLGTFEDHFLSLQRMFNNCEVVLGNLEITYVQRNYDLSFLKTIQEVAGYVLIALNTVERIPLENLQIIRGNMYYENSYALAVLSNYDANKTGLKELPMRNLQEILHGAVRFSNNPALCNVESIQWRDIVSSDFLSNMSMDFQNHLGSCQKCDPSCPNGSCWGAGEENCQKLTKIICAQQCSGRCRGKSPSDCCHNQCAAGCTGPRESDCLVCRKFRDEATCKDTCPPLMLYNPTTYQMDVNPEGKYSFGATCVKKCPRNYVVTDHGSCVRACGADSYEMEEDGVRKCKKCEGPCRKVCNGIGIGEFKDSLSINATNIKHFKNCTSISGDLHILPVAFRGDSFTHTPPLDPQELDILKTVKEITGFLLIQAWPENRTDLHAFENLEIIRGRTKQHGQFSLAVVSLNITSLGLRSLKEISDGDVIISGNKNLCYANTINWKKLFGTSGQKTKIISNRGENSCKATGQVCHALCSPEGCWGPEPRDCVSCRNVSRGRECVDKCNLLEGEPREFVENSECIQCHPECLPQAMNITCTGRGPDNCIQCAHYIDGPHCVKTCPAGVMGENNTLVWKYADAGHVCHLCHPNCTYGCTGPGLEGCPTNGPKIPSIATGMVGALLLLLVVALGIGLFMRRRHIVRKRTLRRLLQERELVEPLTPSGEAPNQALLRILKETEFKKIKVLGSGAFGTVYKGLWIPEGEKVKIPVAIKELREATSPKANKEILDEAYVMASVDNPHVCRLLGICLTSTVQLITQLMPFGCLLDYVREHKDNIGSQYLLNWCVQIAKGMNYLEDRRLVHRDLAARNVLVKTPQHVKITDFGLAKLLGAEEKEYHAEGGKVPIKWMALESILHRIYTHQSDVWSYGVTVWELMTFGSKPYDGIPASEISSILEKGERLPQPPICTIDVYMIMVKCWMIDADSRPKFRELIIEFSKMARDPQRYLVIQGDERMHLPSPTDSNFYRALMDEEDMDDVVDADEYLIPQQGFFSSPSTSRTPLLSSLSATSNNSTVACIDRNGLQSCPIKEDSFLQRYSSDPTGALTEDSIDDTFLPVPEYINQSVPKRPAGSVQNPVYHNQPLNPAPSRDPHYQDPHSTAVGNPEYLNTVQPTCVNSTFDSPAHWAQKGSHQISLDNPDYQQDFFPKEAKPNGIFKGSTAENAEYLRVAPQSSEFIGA
Excerpt: as §1

EPHA1 = EPHA1 (Homo sapiens, UniProt P21709); conditions: 1000 nM, read-out: Percent Control
Excerpt: as §1

EPHA5 = EPHA5 (Homo sapiens, UniProt P54756); conditions: 1000 nM, read-out: Percent Control
Excerpt: as §1

ERBB3 = ERBB3 (Homo sapiens, UniProt P21860); conditions: 1000 nM, read-out: Percent Control
Excerpt: as §1

FER = FER (Homo sapiens, UniProt P16591); conditions: 1000 nM, read-out: Percent Control
Excerpt: as §1

FLT3(ITD) = conditions: 1000 nM
Excerpt: as §1

FLT4 = FLT4 (Homo sapiens, UniProt P35916); conditions: 1000 nM, read-out: Percent Control
Excerpt: as §1

[1] = biological target: JAK1(JH1domain-catalytic) (Homo sapiens, UniProt P23458); conditions: 1000 nM, read-out: Percent Control
Excerpt: as §1

KIT = KIT (Homo sapiens, UniProt P10721); conditions: 1000 nM, read-out: Percent Control
Excerpt: as §1

LTK = LTK (Homo sapiens, UniProt P29376); conditions: 1000 nM, read-out: Percent Control
Excerpt: as §1

MAPKAPK2 = MAPKAPK2 (Homo sapiens, UniProt P49137); conditions: 1000 nM, read-out: Percent Control
Excerpt: as §1

MEK6 = MEK6 (Homo sapiens, UniProt P52564); conditions: compound concentration 100 nM; Entrez MAP2K6; read-out: Percent Control
Excerpt: as §1

MKK7 = MKK7 (Homo sapiens, UniProt O14733); conditions: read-out: Percent Control
Chain of MKK7 (O14733 whole entry): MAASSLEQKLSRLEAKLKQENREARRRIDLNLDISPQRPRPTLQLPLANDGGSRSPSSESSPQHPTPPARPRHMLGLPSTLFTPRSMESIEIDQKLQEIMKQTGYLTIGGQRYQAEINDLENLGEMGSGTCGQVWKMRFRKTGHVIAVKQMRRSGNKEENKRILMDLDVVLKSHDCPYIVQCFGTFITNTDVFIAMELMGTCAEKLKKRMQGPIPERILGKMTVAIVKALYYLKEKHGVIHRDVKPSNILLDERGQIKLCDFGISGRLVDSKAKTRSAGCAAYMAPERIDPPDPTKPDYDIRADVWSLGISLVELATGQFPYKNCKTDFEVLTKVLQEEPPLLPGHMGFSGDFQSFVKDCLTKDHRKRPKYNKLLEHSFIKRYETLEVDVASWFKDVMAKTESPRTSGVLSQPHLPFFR
Excerpt: as §1

MUSK = MUSK (Homo sapiens, UniProt O15146); conditions: 1000 nM, read-out: Percent Control
Excerpt: as §1

NEK6 = NEK6 (Homo sapiens, UniProt Q9HC98); conditions: compound concentration 100 nM; Entrez NEK6; read-out: Percent Control
Excerpt: as §1

NIK = NIK (Homo sapiens, UniProt Q99558); conditions: compound concentration 100 nM; Entrez MAP3K14; read-out: Percent Control
Chain of NIK (Q99558 whole entry): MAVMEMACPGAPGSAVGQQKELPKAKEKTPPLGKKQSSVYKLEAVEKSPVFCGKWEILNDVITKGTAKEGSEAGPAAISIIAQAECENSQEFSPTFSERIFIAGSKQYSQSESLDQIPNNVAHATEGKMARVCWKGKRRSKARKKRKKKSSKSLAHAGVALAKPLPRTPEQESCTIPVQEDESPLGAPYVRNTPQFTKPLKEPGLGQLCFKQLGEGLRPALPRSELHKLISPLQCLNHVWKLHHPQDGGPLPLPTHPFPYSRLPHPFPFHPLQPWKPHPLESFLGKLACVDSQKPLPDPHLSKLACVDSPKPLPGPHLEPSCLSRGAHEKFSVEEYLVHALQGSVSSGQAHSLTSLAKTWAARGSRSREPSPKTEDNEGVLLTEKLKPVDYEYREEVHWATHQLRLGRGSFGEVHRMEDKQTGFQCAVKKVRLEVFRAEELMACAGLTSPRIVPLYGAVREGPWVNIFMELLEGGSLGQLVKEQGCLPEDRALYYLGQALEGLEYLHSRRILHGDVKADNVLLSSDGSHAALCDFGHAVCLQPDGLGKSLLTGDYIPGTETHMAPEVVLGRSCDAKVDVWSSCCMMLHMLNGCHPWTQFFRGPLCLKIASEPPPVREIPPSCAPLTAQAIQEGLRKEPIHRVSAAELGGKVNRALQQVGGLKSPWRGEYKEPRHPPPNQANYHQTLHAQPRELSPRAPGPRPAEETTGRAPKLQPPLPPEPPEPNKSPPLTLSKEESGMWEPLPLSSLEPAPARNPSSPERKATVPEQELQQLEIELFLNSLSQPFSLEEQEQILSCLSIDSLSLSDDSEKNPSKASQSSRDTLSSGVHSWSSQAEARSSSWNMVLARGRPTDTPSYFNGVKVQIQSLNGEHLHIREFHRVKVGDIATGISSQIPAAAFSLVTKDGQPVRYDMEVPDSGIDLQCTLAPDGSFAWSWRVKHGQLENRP
Excerpt: as §1

PAK7 = PAK7 (Homo sapiens, UniProt Q9P286); conditions: 1000 nM, read-out: Percent Control
Excerpt: as §1

PDPK1 = PDPK1 (Homo sapiens, UniProt O15530); conditions: 1000 nM, read-out: Percent Control
Excerpt: as §1

PIK3CD = PIK3CD (Homo sapiens, UniProt O00329); conditions: 1000 nM, read-out: Percent Control
Excerpt: as §1

PIK3CG = PIK3CG (Homo sapiens, UniProt P48736); conditions: 1000 nM, read-out: Percent Control
Chain of PIK3CG (P48736 whole entry): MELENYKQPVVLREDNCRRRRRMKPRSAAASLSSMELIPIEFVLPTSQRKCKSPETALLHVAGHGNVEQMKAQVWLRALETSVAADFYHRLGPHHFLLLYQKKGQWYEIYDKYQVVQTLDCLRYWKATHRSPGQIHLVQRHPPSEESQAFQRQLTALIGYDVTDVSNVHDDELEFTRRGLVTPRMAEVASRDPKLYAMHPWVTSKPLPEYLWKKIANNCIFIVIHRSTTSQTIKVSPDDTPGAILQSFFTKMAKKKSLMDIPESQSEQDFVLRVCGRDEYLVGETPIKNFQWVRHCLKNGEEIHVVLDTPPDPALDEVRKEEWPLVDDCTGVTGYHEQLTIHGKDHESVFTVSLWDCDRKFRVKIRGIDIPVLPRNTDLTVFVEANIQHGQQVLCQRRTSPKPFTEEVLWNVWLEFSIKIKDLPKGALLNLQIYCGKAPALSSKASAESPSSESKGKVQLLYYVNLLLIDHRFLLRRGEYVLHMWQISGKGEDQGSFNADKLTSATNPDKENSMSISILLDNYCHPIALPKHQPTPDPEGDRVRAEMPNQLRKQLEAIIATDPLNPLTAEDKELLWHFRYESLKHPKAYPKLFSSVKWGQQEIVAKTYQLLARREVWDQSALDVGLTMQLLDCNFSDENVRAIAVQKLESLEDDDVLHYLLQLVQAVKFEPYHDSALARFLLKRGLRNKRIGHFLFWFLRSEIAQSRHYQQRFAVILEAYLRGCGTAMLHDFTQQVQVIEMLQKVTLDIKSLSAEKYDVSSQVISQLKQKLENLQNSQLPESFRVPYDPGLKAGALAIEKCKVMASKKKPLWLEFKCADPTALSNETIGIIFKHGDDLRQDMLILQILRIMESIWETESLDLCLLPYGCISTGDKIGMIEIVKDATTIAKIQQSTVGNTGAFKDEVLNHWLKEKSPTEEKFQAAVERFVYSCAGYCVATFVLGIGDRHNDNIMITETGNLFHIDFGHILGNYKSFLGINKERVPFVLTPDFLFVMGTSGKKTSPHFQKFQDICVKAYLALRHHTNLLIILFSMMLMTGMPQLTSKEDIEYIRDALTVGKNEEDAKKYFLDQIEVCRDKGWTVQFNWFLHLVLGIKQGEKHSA
Excerpt: as §1

PIKFYVE = PIKFYVE (Homo sapiens, UniProt Q9Y2I7); conditions: compound concentration 100 nM; Entrez PIKFYVE; read-out: Percent Control
Excerpt: as §1

PKNB(M.tuberculosis) = PKNB(M.tuberculosis) (Mycobacterium tuberculosis, UniProt P9WI81); conditions: 1000 nM, read-out: Percent Control
Excerpt: as §1

PRKCQ = PRKCQ (Homo sapiens, UniProt Q04759); conditions: 1000 nM, read-out: Percent Control
Excerpt: as §1

PRKD1 = PRKD1 (Homo sapiens, UniProt Q15139); conditions: 1000 nM, read-out: Percent Control
Excerpt: as §1

PRKD2 = PRKD2 (Homo sapiens, UniProt Q9BZL6); conditions: 1000 nM, read-out: Percent Control
Excerpt: as §1

ROCK1 = ROCK1 (Homo sapiens, UniProt Q13464); conditions: 1000 nM, read-out: Percent Control
Excerpt: as §1

ROCK2 = ROCK2 (Homo sapiens, UniProt O75116); conditions: 1000 nM, read-out: Percent Control
Excerpt: as §1

SGK = SGK (Homo sapiens, UniProt O00141); conditions: compound concentration 100 nM; Entrez SGK1; read-out: Percent Control
Excerpt: as §1

SLK = SLK (Homo sapiens, UniProt Q9H2G2); conditions: 1000 nM, read-out: Percent Control
Excerpt: as §1

TEC = TEC (Homo sapiens, UniProt P42680); conditions: compound concentration 100 nM; Entrez TEC; read-out: Percent Control
Excerpt: as §1

TNIK = TNIK (Homo sapiens, UniProt Q9UKE5); conditions: 1000 nM, read-out: Percent Control
Excerpt: as §1

TRKC = TRKC (Homo sapiens, UniProt Q16288); conditions: 1000 nM, read-out: Percent Control
Excerpt: as §1

TRPM6 = TRPM6 (Homo sapiens, UniProt Q9BX84); conditions: compound concentration 100 nM; Entrez TRPM6; read-out: Percent Control
Excerpt: as §1

Compound `CN1C(=O)[C@@H](N2CCc3c(nn(Cc4ccccc4)c3C(N)=O)C2=O)COc2cc(Cl)ccc21` [Compound 10, (S)-2-benzyl-6-(8-chloro-5-methyl-4-oxo-2,3,4,5-tetrahydrobenzo[b][1,4]oxazepin-3-yl)-7-oxo-4,5,6,7-tetrahydro-2H-pyrazolo[3,4-c]pyridine-3-carboxamide] has a remaining binding at 1 µM (BLK) of 88%, a remaining binding at 1 µM (BMX; 1000 nM) of 100% and a remaining binding at 0.1 µM (BMX; compound concentration 100 nM, Entrez BMX) of 100%. For the same compound, the remaining binding at 1 µM (CAMK1G) was 88%, the remaining binding at 1 µM (CIT) was 79% and the remaining binding at 1 µM (DMPK; 1000 nM) was 100%. It also gave a remaining binding at 0.1 µM (DMPK; compound concentration 100 nM, Entrez DMPK) of 80%, a remaining binding at 1 µM (EGFR; 1000 nM) of 100% and a remaining binding at 0.1 µM (EGFR; compound concentration 100 nM, Entrez EGFR) of 96%. The remaining binding at 1 µM (EPHA1) was 87%, the remaining binding at 1 µM (EPHA5) was 97% and the remaining binding at 1 µM (ERBB3) was 85%. The remaining binding at 1 µM (FER) was 90%, the “Percent Control” value (FLT3(ITD)) was 77% and the remaining binding at 1 µM (FLT4) was 92%. For the same compound, the remaining binding at 1 µM [1] was 89%, the remaining binding at 1 µM (KIT) was 89% and the remaining binding at 1 µM (LTK) was 86%. It also gave a remaining binding at 1 µM (MAPKAPK2) of 64%, a remaining binding at 0.1 µM (MEK6) of 88% and a remaining binding at 1 µM (MKK7; 1000 nM) of 99%. It also gave a remaining binding at 0.1 µM (MKK7; compound concentration 100 nM, Entrez MAP2K7) of 91%, a remaining binding at 1 µM (MUSK) of 92% and a remaining binding at 0.1 µM (NEK6) of 78%. The remaining binding at 0.1 µM (NIK) was 80%, the remaining binding at 1 µM (PAK7) was 91% and the remaining binding at 1 µM (PDPK1) was 91%. It also gave a remaining binding at 1 µM (PIK3CD) of 83%, a remaining binding at 1 µM (PIK3CG) of 90% and a remaining binding at 0.1 µM (PIKFYVE) of 98%. For the same compound, the remaining binding at 1 µM (PKNB(M.tuberculosis)) was 83%, the remaining binding at 1 µM (PRKCQ) was 91% and the remaining binding at 1 µM (PRKD1) was 97%. It also gave a remaining binding at 1 µM (PRKD2) of 96%, a remaining binding at 1 µM (ROCK1) of 69% and a remaining binding at 1 µM (ROCK2) of 74%. The remaining binding at 0.1 µM (SGK) was 98%, the remaining binding at 1 µM (SLK) was 78% and the remaining binding at 0.1 µM (TEC) was 86%. It also gave a remaining binding at 1 µM (TNIK) of 96%, a remaining binding at 1 µM (TRKC) of 64% and a remaining binding at 0.1 µM (TRPM6) of 100%.
